This test concerns KRAS G12C mutant human non-small cell lung cancer cells NCI-H358. Briefly: 3D cell proliferation inhibition assay, NCI-H358. Format: cell-based. As to conditions: NCI-H358, 168 h, 7 days, CTG. The source says:
Test Example 4: 3D Cell Proliferation Inhibition Assay
The inhibitory effect of the compounds on the proliferation of 3D cells was investigated on KRAS G12C mutant human non-small cell lung cancer cells NCI-H358 (ATCC or Stem Cell Bank, Chinese Academy of Sciences), KRAS G12D mutant human metastatic pancreatic adenocarcinoma cells AsPC-1 (ATCC), KRAS G12V mutant human lung adenocarcinoma cells NCI-H441 (ATCC), and KRAS G13D mutant human colorectal adenocarcinoma epithelial cells DLD-1 (ATCC). The specific procedures were as follows:
200 nL of compound solution diluted in a gradient was added to corresponding microwells of a 384-well low-adsorption microwell plate (Corning, 3657) using an Echo sonic pipetting system (Labcyte, Echo 550), so that the final concentration of the test compound in the reaction system was in a range of 20000 nM-0.008 nM. Then 40 μL of cells at a certain density were added to the corresponding microplate. In addition to test wells for the test compounds, both a DMSO control well and a medium control well were set, with the DMSO control well containing DMSO and cells and the medium well containing only medium. […] The plate was incubated at room temperature for 30 min and read on a microplate reader EnVision using the chemiluminescence program. […]

SMILES strings stand for the structures. Some results are limits rather than exact numbers.

This is an account of results in patent US20240261418A1, “SOS1 DEGRADING AGENT AND PREPARATION METHOD THEREFOR AND APPLICATION THEREOF” (SHANGHAI LEADINGTAC PHARMACEUTICAL CO. LTD., priority 2021, published 2024).

On to `COc1cc2nc(C)nc(N[C@H](C)c3cc(-c4c(Cl)cccc4CN(C)C)cs3)c2cc1[C@H]1CC[C@H](C(=O)N2CCN(CC3CCC4(CC3)CCN(C(=O)c3ccc(Cl)c(N5CCC(=O)NC5=O)c3)CC4)CC2)CC1` [Example 1, 1-(2-chloro-5-(9-((4-((1R,4R)-4-(4-(((R)-1-(4-(2-chloro-6-((dimethylamino)methyl)phenyl)thien-2-yl)ethyl)amino)-7-methoxy-2-methylquinazolin-6-yl)cyclohexane-1-carbonyl)piperazin-1-yl)methyl)-3-azaspiro[5.5]undecane-3-carbonyl)phenyl)dihydropyrimidine-2,4(1H,3H)-dione], for which the IC50 was ≤ 15 nM.

`COc1cc2nc(C)nc(N[C@H](C)c3cc(-c4c(Cl)cccc4CN(C)C)cs3)c2cc1[C@H]1CC[C@H](C(=O)N2CCC(CCOCC3CCN(C(=O)c4ccc(Cl)c(N5CCC(=O)NC5=O)c4)CC3)CC2)CC1` [Example 5, 1-(2-chloro-5-(4-((2-(1-((1R,4R)-4-(4-(((R)-1-(4-(2-chloro-6-((dimethylamino)methyl)phenyl)thien-2-yl)ethyl)amino)-7-methoxy-2-methylquinazolin-6-yl)cyclohexane-1-carbonyl)piperidin-4-yl)ethoxy)methyl)piperidine-1-carbonyl)phenyl)dihydropyrimidine-2,4(1H,3H)-dione]: the IC50 was ≤ 15 nM.

One may read the IC50 as the midpoint of a concentration-inhibition curve. A high value points to lower potency.
